Laboratory results reported in ChEMBL document CHEMBL5724914, “Linking interpersonal differences in gut microbiota composition and drug biotransformation activity” (2024).

Columns and labels:
[1] = The drug is tested on Z-022 corresponding to mouse gut metagenome with ENA study accession number: PRJEB37062 and ENA sample accession number: ERS12561821 for biotransformation under anaerobic condition. The drug concentrations were measured over 9 timepoints collected between 0 and 24 hours of incubation by liquid-chromatography-coupled mass spectrometry (LC–MS); conditions: 2 µM
[2] = The drug is tested on Z-018 corresponding to pig gut metagenome with ENA study accession number: PRJEB37062 and ENA sample accession number: ERS12561817 for biotransformation under anaerobic condition. The drug concentrations were measured over 9 timepoints collected between 0 and 24 hours of incubation by liquid-chromatography-coupled mass spectrometry (LC–MS); conditions: 2 µM
[3] = The drug is tested on Z-004 corresponding to metagenome with ENA study accession number: PRJEB37062 and ENA sample accession number: ERS12561804 for biotransformation under anaerobic condition. The drug concentrations were measured over 9 timepoints collected between 0 and 24 hours of incubation by liquid-chromatography-coupled mass spectrometry (LC–MS); conditions: 2 µM
[4] = The drug is tested on Z-002 corresponding to rabbit gut metagenome with ENA study accession number: PRJEB37062 and ENA sample accession number: ERS12561802 for biotransformation under anaerobic condition. The drug concentrations were measured over 9 timepoints collected between 0 and 24 hours of incubation by liquid-chromatography-coupled mass spectrometry (LC–MS); conditions: 2 µM
[5] = The drug is tested on Z-001 corresponding to mouse gut metagenome with ENA study accession number: PRJEB37062 and ENA sample accession number: ERS12561801 for biotransformation under anaerobic condition. The drug concentrations were measured over 9 timepoints collected between 0 and 24 hours of incubation by liquid-chromatography-coupled mass spectrometry (LC–MS); conditions: 2 µM
[6] = The drug is tested on WLS-370 corresponding to human gut metagenome with ENA study accession number: PRJEB37062 and ENA sample accession number: ERS12561793 for biotransformation under anaerobic condition. The drug concentrations were measured over 9 timepoints collected between 0 and 24 hours of incubation by liquid-chromatography-coupled mass spectrometry (LC–MS); conditions: 2 µM
[7] = The drug is tested on WLS-240 corresponding to human gut metagenome with ENA study accession number: PRJEB37062 and ENA sample accession number: ERS12561773 for biotransformation under anaerobic condition. The drug concentrations were measured over 9 timepoints collected between 0 and 24 hours of incubation by liquid-chromatography-coupled mass spectrometry (LC–MS); conditions: 2 µM
[8] = The drug is tested on WLS-220 corresponding to human gut metagenome with ENA study accession number: PRJEB37062 and ENA sample accession number: ERS12561769 for biotransformation under anaerobic condition. The drug concentrations were measured over 9 timepoints collected between 0 and 24 hours of incubation by liquid-chromatography-coupled mass spectrometry (LC–MS); conditions: 2 µM
[9] = The drug is tested on WLS-082 corresponding to human gut metagenome with ENA study accession number: PRJEB37062 and ENA sample accession number: ERS12561751 for biotransformation under anaerobic condition. The drug concentrations were measured over 9 timepoints collected between 0 and 24 hours of incubation by liquid-chromatography-coupled mass spectrometry (LC–MS); conditions: 2 µM
[10] = The drug is tested on WLS-052 corresponding to human gut metagenome with ENA study accession number: PRJEB37062 and ENA sample accession number: ERS12561747 for biotransformation under anaerobic condition. The drug concentrations were measured over 9 timepoints collected between 0 and 24 hours of incubation by liquid-chromatography-coupled mass spectrometry (LC–MS); conditions: 2 µM
[11] = human gut metagenome, 24 h, 2 µM
[12] = human gut metagenome, 24 h, 2 µM; remark: listed apart in the source
[13] = human gut metagenome, 24 h, 2 µM; remark: listed apart in the source
[14] = human gut metagenome, 24 h, 2 µM; remark: listed apart in the source
[15] = human gut metagenome, 24 h, 2 µM; remark: listed apart in the source
[16] = human gut metagenome, 24 h, 2 µM; remark: listed apart in the source
[17] = human gut metagenome, 24 h, 2 µM; remark: listed apart in the source
[18] = human gut metagenome, 24 h, 2 µM; remark: listed apart in the source
[19] = human gut metagenome, 24 h, 2 µM; remark: listed apart in the source
[20] = human gut metagenome, 24 h, 2 µM; remark: listed apart in the source
Further: call rule not given here.

| Compound | Bacterial Biotransformation [1] | Bacterial Biotransformation [2] | Bacterial Biotransformation [3] | Bacterial Biotransformation [4] | Bacterial Biotransformation [5] | Bacterial Biotransformation [6] | Bacterial Biotransformation [7] | Bacterial Biotransformation [8] | Bacterial Biotransformation [9] | Bacterial Biotransformation [10] | Bacterial Biotransformation [11] | Bacterial Biotransformation [12] | Bacterial Biotransformation [13] | Bacterial Biotransformation [14] | Bacterial Biotransformation [15] | Bacterial Biotransformation [16] | Bacterial Biotransformation [17] | Bacterial Biotransformation [18] | Bacterial Biotransformation [19] | Bacterial Biotransformation [20] |
| --- | --- | --- | --- | --- | --- | --- | --- | --- | --- | --- | --- | --- | --- | --- | --- | --- | --- | --- | --- | --- |
| C[C@]12CCC(=O)C=C1[C@@H]1C[C@@H]1[C@H]1[C@@H]3[C@@H]4C[C@@H]4[C@@]4(CCC(=O)O4)[C@@]3(C)CC[C@@H]12 [DROSPIRENONE] | Compound NOT metabolized | Compound metabolized | Compound NOT metabolized | Compound metabolized | Compound NOT metabolized | Compound metabolized | Compound metabolized | Compound metabolized | Compound metabolized | Compound metabolized | Compound metabolized | Compound metabolized | Compound metabolized | Compound metabolized | Compound metabolized | Compound NOT metabolized | Compound metabolized | Compound NOT metabolized | Compound metabolized | Compound metabolized |
| CCN1CCCC1CNC(=O)c1cc(S(=O)(=O)CC)c(N)cc1OC (stereo not given) [AMISULPRIDE] | Compound NOT metabolized | Compound NOT metabolized | Compound NOT metabolized | Compound metabolized | Compound NOT metabolized | Compound NOT metabolized | Compound metabolized | Compound NOT metabolized | Compound NOT metabolized | Compound NOT metabolized | Compound NOT metabolized | Compound metabolized | Compound metabolized | Compound NOT metabolized | Compound metabolized | Compound NOT metabolized | Compound NOT metabolized | Compound NOT metabolized | Compound metabolized | Compound metabolized |
| Nc1nc(N)nc(-c2cc(Cl)ccc2Cl)n1.O=C(O)/C=C\C(=O)O [IRSOGLADINE MALEATE] | Compound NOT metabolized | Compound NOT metabolized | Compound NOT metabolized | Compound NOT metabolized | Compound NOT metabolized | Compound NOT metabolized | Compound NOT metabolized | Compound NOT metabolized | Compound NOT metabolized | Compound NOT metabolized | Compound NOT metabolized | Compound NOT metabolized | Compound NOT metabolized | Compound NOT metabolized | Compound NOT metabolized | Compound NOT metabolized | Compound NOT metabolized | Compound NOT metabolized | Compound metabolized | Compound NOT metabolized |
| CC(C)NCC(O)COc1ccc(CC(N)=O)cc1 (stereo not given) [ATENOLOL] | Compound NOT metabolized | Compound NOT metabolized | Compound NOT metabolized | Compound NOT metabolized | Compound NOT metabolized | Compound NOT metabolized | Compound NOT metabolized | Compound NOT metabolized | Compound NOT metabolized | Compound NOT metabolized | Compound NOT metabolized | Compound NOT metabolized | Compound NOT metabolized | Compound NOT metabolized | Compound NOT metabolized | Compound NOT metabolized | Compound metabolized | Compound metabolized | Compound metabolized | Compound metabolized |

Next, values leading:

| Bacterial Biotransformation [1] | Bacterial Biotransformation [2] | Bacterial Biotransformation [3] | Bacterial Biotransformation [4] | Bacterial Biotransformation [5] | Bacterial Biotransformation [6] | Bacterial Biotransformation [7] | Bacterial Biotransformation [8] | Bacterial Biotransformation [9] | Bacterial Biotransformation [10] | Bacterial Biotransformation [11] | Bacterial Biotransformation [12] | Bacterial Biotransformation [13] | Bacterial Biotransformation [14] | Bacterial Biotransformation [15] | Bacterial Biotransformation [16] | Bacterial Biotransformation [17] | Bacterial Biotransformation [18] | Bacterial Biotransformation [19] | Bacterial Biotransformation [20] | Compound |
| --- | --- | --- | --- | --- | --- | --- | --- | --- | --- | --- | --- | --- | --- | --- | --- | --- | --- | --- | --- | --- |
| Compound NOT metabolized | Compound NOT metabolized | Compound NOT metabolized | Compound NOT metabolized | Compound NOT metabolized | Compound NOT metabolized | Compound metabolized | Compound metabolized | Compound metabolized | Compound metabolized | Compound NOT metabolized | Compound metabolized | Compound metabolized | Compound NOT metabolized | Compound metabolized | Compound metabolized | Compound metabolized | Compound metabolized | Compound metabolized | Compound metabolized | COc1ccc2cc([C@H](C)C(=O)O)ccc2c1 [NAPROXEN] |
| Compound metabolized | Compound metabolized | Compound metabolized | Compound metabolized | Compound metabolized | Compound metabolized | Compound metabolized | Compound metabolized | Compound metabolized | Compound NOT metabolized | Compound metabolized | Compound metabolized | Compound metabolized | Compound metabolized | Compound metabolized | Compound metabolized | Compound metabolized | Compound metabolized | Compound metabolized | Compound metabolized | O=C(O)c1cc(/N=N/c2ccc(S(=O)(=O)Nc3ccccn3)cc2)ccc1O [SULFASALAZINE] |
